The values below come from US10035790B2, “RORγ modulators” (BRISTOL-MYERS SQUIBB COMPANY, priority 2012, dated 2018).

In general, IC50 refers to the concentration needed to halve the response being measured.

One assay has as its target T1, ligand binding domain of human RORγ (A262-S507) (Homo sapiens, UniProt P51449).
T1 construct: made in house; host or cells: E. coli
T1 sequence (P51449 262-507): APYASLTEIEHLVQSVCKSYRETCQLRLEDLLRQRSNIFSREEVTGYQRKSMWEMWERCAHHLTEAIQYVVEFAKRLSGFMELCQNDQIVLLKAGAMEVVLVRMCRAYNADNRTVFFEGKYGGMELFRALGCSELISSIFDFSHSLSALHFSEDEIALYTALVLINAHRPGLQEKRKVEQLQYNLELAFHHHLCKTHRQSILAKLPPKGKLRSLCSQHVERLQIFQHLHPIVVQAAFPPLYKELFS
Nature of the assay: General RORγ SPA binding assay (competition with [3H]25-hydroxycholesterol). Particulars: IC50, RORγ SPA binding assay, inhibition of [3H]25-hydroxycholesterol binding. In outline:
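N-terminally His-tagged protein was expressed in E. coli and nickel-purified. Then 50 nM protein was preincubated with compound for 15 min at room temperature in PBS with 0.5% fatty acid free BSA, followed by radioligand for 15 min and copper His-tag SPA beads for 30 min. IC50 came from percent inhibition of binding.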
In turn, `Cc1nc(C)c(C(=O)NCc2ccnc(C(F)(F)F)n2)c(C2CCN(C(=O)Oc3c(F)cccc3F)CC2)n1` [Compound A123, 2,6-Difluorophenyl 4-{2,6-dimethyl-5-[({[2-(trifluoromethyl)pyrimidin-4-yl]methyl}amino)carbonyl]pyrimidin-4-yl}piperidine-1-carboxylate] displayed an IC50 of 5.4 nM.

Staying with this assay, now noted: RORγ SPA binding assay, inhibition of [3H]25-hydroxycholesterol binding; read-out: IC50.
As for `CC(=O)N1CCC(NC(COc2cccc(C(F)(F)F)n2)c2cnc(C)nc2C2CCN(C(=O)Nc3c(F)cccc3F)CC2)CC1` (centres unmarked) [Compound N28, 4-[5-(1-[(1-Acetylpiperidin-4-yl)amino]-2-{[6-(trifluoromethyl)pyridin-2-yl]oxy}ethyl)-2-methylpyrimidin-4-yl]-N-(2,6-difluorophenyl)piperidine-1-carboxamide], the IC50 worked out at 71 nM. On to `Cc1nc(C)c(-c2nc(-c3ccc(F)cc3)no2)c(C2CCN(C(=O)Cc3c(F)cccc3F)CC2)n1` [Compound C2, 2-(2,6-difluorophenyl)-1-(4-(5-(3-(4-fluorophenyl)-1,2,4-oxadiazol-5-yl)-2,6-dimethylpyrimidin-4-yl)piperidin-1-yl)ethanone], for which the IC50 came out at 337 nM. Same read-out and setting: with `C/C(=N\Oc1cccc(C(F)(F)F)c1)c1cnc(C)nc1C1CCN(C(=O)Cc2c(F)cccc2F)CC1` [Compound B3, (E)-2-(2,6-Difluorophenyl)-1-(4-(2-methyl-5-(1-(3-(trifluoromethyl)phenoxyimino)ethyl)pyrimidin-4-yl)piperidin-1-yl)ethanone] the figure was 3.1 nM. The same measure, in the same setting: with `CCOCC(C)(OCc1cc(C)cc(C)c1)c1cnc(C)nc1C1CCN(C(=O)Cc2c(F)cccc2F)CC1` (centres unmarked) [Compound E2, 2-(2,6-difluorophenyl)-1-(4-(5-(2-((3,5-dimethylbenzyl)oxy)-1-ethoxypropan-2-yl)-2-methylpyrimidin-4-yl)piperidin-1-yl)ethanone] the figure was 5.3 nM. The same measure, in the same setting: with `Cc1nc(C)c(-c2nnc(-c3ccnc(C(F)(F)F)n3)o2)c(C2CCN(C(=O)Cc3ccccc3F)CC2)n1` [Compound C25, 1-(4-(2,6-dimethyl-5-(5-(2-(trifluoromethyl)pyrimidin-4-yl)-1,3,4-oxadiazol-2-yl)pyrimidin-4-yl)piperidin-1-yl)-2-(2-fluorophenyl)ethanone] the figure was 23.1 nM; with `Cc1nc(N)nc(C2CCN(C(=O)Oc3cc(F)ccc3F)CC2)c1-c1nnc(-c2ccnc(C(F)(F)F)n2)o1` [Compound C54, 2,5-Difluorophenyl 4-(2-amino-6-methyl-5-{5-[2-(trifluoromethyl)pyrimidin-4-yl]-1,3,4-oxadiazol-2-yl}pyrimidin-4-yl)piperidine-1-carboxylate], 21.1 nM; with `Cc1nc(C)c(-c2nnc(-c3ccnc(C(F)(F)F)n3)o2)c(C2CCN(C(=O)[C@H](C)c3c(F)cccc3F)CC2)n1` [Compound C35, (R)-2-(2,6-Difluorophenyl)-1-(4-(2,6-dimethyl-5-(5-(2-(trifluoromethyl)pyrimidin-4-yl)-1,3,4-oxadiazol-2-yl)pyrimidin-4-yl)piperidin-1-yl)propan-1-one], 608 nM.

As for `CCC/C(=N\Oc1cccc(C(F)(F)F)c1)c1c(C)nc(C)nc1C1CCN(C(=O)Cc2c(F)cccc2F)CC1` [Compound B48, (1E)-1-(4-{1-[(2,6-difluorophenyl)acetyl]piperidin-4-yl}-2,6-dimethylpyrimidin-5-yl)butan-1-one O-[3-(trifluoromethyl)phenyl]oxime], the half-inhibitory concentration (IC50) came to 241 nM.

For `O=C(NCc1cccc(Cl)c1)c1cnc(C2CC2)nc1C1CCN(C(=O)Cc2c(F)cccc2F)CC1` [Compound A45, N-(3-chlorobenzyl)-2-cyclopropyl-4-(1-(2-(2,6-difluorophenyl)acetyl)piperidin-4-yl)pyrimidine-5-carboxamide], the IC50 was 6 nM.

Consider `Cc1ncc(C(C)(O)Cc2cccc(C(F)(F)F)n2)c(C2CCN(C(=O)Nc3c(F)cccc3F)CC2)n1` (centres unmarked) [Compound D47, N-(2,6-Difluorophenyl)-4-(5-{1-hydroxy-1-methyl-2-[6-(trifluoromethyl)pyridin-2-yl]ethyl}-2-methylpyrimidin-4-yl)piperidine-1-carboxamide], for which the IC50 came to 52.9 nM. The same measure, in the same setting: for `C/C(=N\Oc1cccc(C(F)(F)F)c1)c1c(C)nc(C)nc1C1CCN(C(=O)Cc2c(F)cccc2F)CC1` [Compound B1, (1E)-1-(4-{1-[(2,6-Difluorophenyl)acetyl]piperidin-4-yl}-2,6-dimethylpyrimidin-5-yl)ethanone O-[3-(trifluoromethyl)phenyl]] the value was 54 nM; for `CN(C)c1ncc(C(=O)NCc2cccc(Cl)c2)c(C2CCN(C(=O)Cc3c(F)cccc3F)CC2)n1` [Compound A88, N-(3-chlorobenzl)-4-(1-(2-(2,6-difluorophenyl)acetyl)piperidin-4-yl)-2-(dimethylamino)pyrimidine-5-carboxamide], 5.4 nM; for `Cc1ncc(C2(C)CN(c3ccnc(C(F)(F)F)n3)C(=O)O2)c(C2CCN(C(=O)Cc3c(F)cccc3F)CC2)n1` (centres unmarked) [Compound N50, 5-(4-{1-[(2,6-Difluorophenyl)acetyl]piperidin-4-yl}-2-methylpyrimidin-5-yl)-5-methyl-3-[2-(trifluoromethyl)pyrimidin-4-yl]-1,3-oxazolidin-2-one], 290 nM. On the same count and under the same terms, for `Cc1cnc(CNC(=O)c2cnc(C)nc2C2CCN(C(=O)Cc3c(F)cccc3F)CC2)cn1` [Compound A79, 4-(1-(2-(2,6-difluorophenyl)acetyl)piperidin-4-yl)-2-methyl-N-((5-methylpyrazin-2-yl)methyl) pyrimidine-5-carboxamide] the value was 5260 nM; for `Nc1ncc(C(N)COc2cccc(C(F)(F)F)n2)c(C2CCN(C(=O)Oc3ccccc3F)CC2)n1` (centres unmarked) [Compound N29, 2-Fluorophenyl 4-[2-amino-5-(1-amino-2-{[6-(trifluoromethyl)pyridin-2-yl]oxy}ethyl)pyrimidin-4-yl]piperidine-1-carboxylate], 10000 nM; for `Cc1ncc(C(=O)NCc2cc(Cl)ccc2F)c(C2CCN(C(=O)Cc3c(F)cccc3F)CC2)n1` [Compound A42, N-(5-chloro-2-fluorobenzyl)-4-(1-(2-(2,6-difluorophenyl)acetyl)piperidin-4-yl)-2-methylpyrimidine-5-carboxamide], 5.1 nM.

As for `Cc1nc(C)c(-c2nnc(-c3ccnc(C(F)(F)F)n3)o2)c(C2CCN(C(=O)C(C)c3c(F)cccc3F)CC2)n1` (centres unmarked) [Compound C26, 2-(2,6-difluorophenyl)-1-(4-(2,6-dimethyl-5-(5-(2-(trifluoromethyl)pyrimidin-4-yl)-1,3,4-oxadiazol-2-yl)pyrimidin-4-yl)piperidin-1-yl)propan-1-one], the half-maximal inhibitory concentration (IC50) was determined as 235 nM.

In the case of `Cc1nc(C2CCN(C(=O)Cc3c(F)cccc3F)CC2)c(C(=O)NCc2cccc(C(F)(F)F)n2)c(=O)n1C` [Compound I7, 4-(1-(2-(2,6-Difluorophenyl)acetyl)piperidin-4-yl)-1,2-dimethyl-6-oxo-N-((6-(trifluoromethyl)pyridin-2-yl)methyl)-1,6-dihydropyrimidine-5-carboxamide], the concentration for half-maximal inhibition (IC50) is 654 nM. Regarding `COc1ncc(C(O)COc2cccc(C(F)(F)F)n2)c(C2CCN(C(=O)Nc3c(F)cccc3F)CC2)n1` (centres unmarked) [Compound N4, N-(2,6-Difluorophenyl)-4-[5-(1-hydroxy-2-{[6-(trifluoromethyl)pyridin-2-yl]oxy}ethyl)-2-(methyloxy)pyrimidin-4-yl]piperidine-1-carboxamide], the concentration for half-maximal inhibition (IC50) was found to be 12.1 nM. The same measure, in the same setting: with `Cc1ncc(C(=O)NCc2cc(C)n(C)n2)c(C2CCN(C(=O)Cc3c(F)cccc3F)CC2)n1` [Compound A78, 4-(1-(2-(2,6-difluorophenyl)acetyl)piperidin-4-yl)-N-((1,5-dimethyl-1H-pyrazol-3-yl)methyl)-2-methylpyrimidine-5-carboxamide] the figure was 1790 nM; with `Cc1ncc(C2(COc3cccc(C(F)(F)F)n3)CNC(=O)O2)c(C2CCN(C(=O)Nc3c(F)cccc3F)CC2)n1` (centres unmarked) [Compound N52, N-(2,6-Difluorophenyl)-4-{2-methyl-5-[2-oxo-5-({[6-(trifluoromethyl)pyridin-2-yl]oxy}methyl)-1,3-oxazolidin-5-yl]pyrimidin-4-yl}piperidine-1-carboxamide], 13.8 nM; with `Cc1cc(C)cc(CNC(=O)c2cnc(C)nc2C2CCN(C(=O)C(F)(F)c3c(F)cccc3F)CC2)c1` [Compound A116, 4-{1-[(2,6-Difluorophenyl)(difluoro)acetyl]piperidin-4-yl}-N-[(3,5-dimethylphenyl)methyl]-2-methylpyrimidine-5-carboxamide], 37.1 nM. The same measure, in the same setting: with `Cc1nc(C)c(-c2nnc(-c3ccnc(C(F)(F)F)n3)o2)c(C2CCN(S(=O)(=O)Cc3ccccc3F)CC2)n1` [Compound C34, 4-(1-{[(2-Fluorophenyl)methyl]sulfonyl}piperidin-4-yl)-2,6-dimethyl-5-{5-[2-(trifluoromethyl)pyrimidin-4-yl]-1,3,4-oxadiazol-2-yl}pyrimidine] the figure was 87.1 nM; with `Cc1ncc(/C(CO)=N/Oc2cccc(C(F)(F)F)c2)c(C2CCN(C(=O)Cc3c(F)cccc3F)CC2)n1` [Compound B28, (Z)-2-(2,6-difluorophenyl)-1-(4-(5-(2-hydroxy-1-((3-(trifluoromethyl)phenoxy)imino)ethyl)-2-methylpyrimidin-4-yl)piperidin-1-yl)ethanone], 696 nM. Same read-out and setting: for `C/C(=N\Oc1cc(F)ccc1C)c1cnc(C)nc1C1CCN(C(=O)Cc2c(F)cccc2F)CC1` [Compound B17, (E)-2-(2,6-difluorophenyl)-1-(4-(5-(1-((5-fluoro-2-methylphenoxy)imino)ethyl)-2-methylpyrimidin-4-yl)piperidin-1-yl)ethanone] the value was 9.3 nM.
